The first assay relates to G. duodenalis BRIS/91/HEPU/1279. Briefly: Primary Giardia screen at 10 µM (live-cell imaging, automated counting). The settings on record: 24 h. Format: cell-based, Giardia duodenalis. Summed up:
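Singlicate, 10 μM final, 0.2% DMSO; sealed chambers, 3% O2/5% CO2/N2. Counts by live-cell imaging at 24 h and 48 h. % growth vs vehicle, media background subtracted; Z' per plate.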
As to `CCOC(=O)c1cccc(Nc2ncccc2S(N)(=O)=O)c1` [SN00799296], the “Average % Inhibition 24h” value came to 14.5%.

The same assay, now with this note: 24 h, first singlicate assay.
In the case of `CCOC(=O)c1cccc(Nc2ncccc2S(N)(=O)=O)c1` [SN00799296], the “% Inhibition n=1 24h” value came out at 29.1%.

The assay is the same for the next values; noted with them: 24 h, re-assessment.
Regarding `CCOC(=O)c1cccc(Nc2ncccc2S(N)(=O)=O)c1` [SN00799296], the “% Inhibition n=2 24h” value was 0.0%.

The assay is the same for the next values; noted with them: 48 h.
Consider `CCOC(=O)c1cccc(Nc2ncccc2S(N)(=O)=O)c1` [SN00799296], for which the “Average % Inhibition 48h” value was 35.4%.

Still in this assay, the particulars now being: 48 h, first singlicate assay.
`Cc1cc2c(cc1S(=O)(=O)NC(C)C)N(C(=O)C1CC1)CC2` [SN00798844]: the “% Inhibition n=1 48h” value stood at 15.5%.

As to `CC(C)c1csc(-c2ccc(S(=O)(=O)NCc3ccc(Cl)cc3)s2)n1` [SN00798864], the “% Inhibition n=1 48h” value came to 0.0%.

For the compound `CCC(C)NC(=O)C1CCN(c2cnc(N3CCSCC3)nc2)CC1` (centres unmarked) [SN00798903], the “% Inhibition n=1 48h” value is on record as 12.6%.

Turning to `CCCC(=O)Nc1ccc2c(c1)CN(C(=O)Cc1ccccc1C)C(C(=O)N(C)C)C2` (centres unmarked) [SN00798922], the “% Inhibition n=1 48h” value stood at 11.7%.

As to `CC(=O)Nc1ccc2c(c1)CN(C(=O)C1CCCCC1)C(C(=O)N1CCCCC1)C2` (centres unmarked) [SN00798930], the “% Inhibition n=1 48h” value stood at 8.7%.

Take `CCc1c(C2CCN(C(=O)c3cnccn3)CC2)noc1N` [SN00798959]: the “% Inhibition n=1 48h” value was determined as 12.1%.

As for `CCCn1c(C2CCN(C(=O)Nc3ccc(F)cc3)CC2)cc(=O)n2nccc12` [SN00798971], the “% Inhibition n=1 48h” value is recorded as 19.1%.

Consider `Cn1c(C2CCN(C(=O)Nc3ccccc3F)CC2)cc(=O)n2nccc12` [SN00798982], for which the “% Inhibition n=1 48h” value was 3.2%.

Regarding `COc1ccc(-c2ncc3c(n2)CCN(C(=O)c2ccccc2C(F)(F)F)C3)cc1` [SN00799000], the “% Inhibition n=1 48h” value is listed as 0.0%.

For the compound `O=C(c1cccc(Br)c1)N1CCc2nc(-c3ccc(F)cc3)ncc2C1` [SN00799013], the “% Inhibition n=1 48h” value was 13.8%.

As to `O=S(=O)(c1cccc2cccnc12)N1CCc2nc(-c3ccc(F)cc3)ncc2C1` [SN00799070], the “% Inhibition n=1 48h” value was 3.1%.

For `COc1ccc(S(=O)(=O)N2CCc3nc(-c4ccccc4)ncc3C2)cc1` [SN00799076], the “% Inhibition n=1 48h” value came out at 6.9%.

As to `CCCN(C)C(=O)c1ccc(-c2ccnc(N3CCCCC3)n2)cc1` [SN00799110], the “% Inhibition n=1 48h” value was 0.0%.

For `CCC(C)NC(=O)CC1Sc2ncccc2N(C)C1=O` (centres unmarked) [SN00799120], the “% Inhibition n=1 48h” value is on record as 11.7%.

With `O=C(Cn1c(=O)c2nncn2c2ncccc21)N1CCN(c2cccc(Cl)c2)CC1` [SN00799155], the “% Inhibition n=1 48h” value is on record as 17.9%.

With `CCn1nnc2c(C(=O)NCCC3=CCCCC3)c(C)sc2c1=O` [SN00799184], the “% Inhibition n=1 48h” value was determined as 2.6%.

For the compound `CCCNC(=O)c1cncc(-c2cccc(NC(=O)CC)c2)c1` [SN00799189], the “% Inhibition n=1 48h” value is given as 0.0%.

Turning to `Cc1ccccc1C(=O)N1CCC(Cc2nnc(-c3ccccc3)o2)CC1` [SN00799218], the “% Inhibition n=1 48h” value is listed as 12.0%.

On to `O=C(N1CCC(CCOCc2cccc(F)c2)CC1)C1(c2ccccc2)CC1` [SN00799224], for which the “% Inhibition n=1 48h” value came out at 0.0%.

In the case of `CCOC(=O)c1cccc(Nc2ncccc2S(N)(=O)=O)c1` [SN00799296], the “% Inhibition n=1 48h” value worked out at 70.8%.

Take `CC(C)(C)NC(=O)c1cc(-c2cccnc2)[nH]n1` [SN00799308]: the “% Inhibition n=1 48h” value was determined as 15.5%.

For `O=C(c1cc(-c2cccnc2)[nH]n1)N1CCCC1` [SN00799309], the “% Inhibition n=1 48h” value amounted to 13.7%.

`Cc1cn2c(S(=O)(=O)N3CCN(c4ccc(F)cc4)CC3)c(C(C)C)nc2s1` [SN00799325]: the “% Inhibition n=1 48h” value came to 19.4%.

Turning to `COc1ccc(CNS(=O)(=O)c2c(C)nc3sc(C)nn23)cc1` [SN00799344], the “% Inhibition n=1 48h” value was 4.3%.

Regarding `CC(=O)c1cccc(NC(=O)CN2CCC(c3nc(-c4ccccc4)no3)CC2)c1` [SN00799373], the “% Inhibition n=1 48h” value was determined as 0.0%.

For `O=C(CN1CCC(c2nc(-c3ccc(F)cc3)no2)CC1)NCc1ccccc1` [SN00799393], the “% Inhibition n=1 48h” value worked out at 0.0%.

In the case of `O=C(CCn1ccn2nc(-c3ccccc3Cl)cc2c1=O)NCc1ccc(F)cc1` [SN00799415], the “% Inhibition n=1 48h” value is 0.0%.

As for `COc1ccc(-c2cccc(NC(=O)c3ccccc3Br)c2)nn1` [SN00799416], the “% Inhibition n=1 48h” value is reported as 16.0%.

Consider `Cc1nc(-c2ccccn2)cc2nn(CC(=O)N3CCC(Cc4ccccc4)CC3)c(=O)n12` [SN00799441], for which the “% Inhibition n=1 48h” value is 4.9%.

On to `Cc1ccc(NC(=O)c2cnc3c(c2)c(=O)n(C)c(=O)n3-c2ccccc2)cc1` [SN00799453], for which the “% Inhibition n=1 48h” value is reported as 0.0%.

Take `Cc1ccc(NC(=O)CN2N=C(C(=O)Nc3ccc(F)cc3)CCC2=O)cc1F` [SN00799502]: the “% Inhibition n=1 48h” value amounted to 8.0%.

As for `O=C(COc1ccc(F)cc1)N1CCN(c2nc(CN3CCCC3)cs2)CC1` [SN00799511], the “% Inhibition n=1 48h” value came to 1.1%.

Take `Cc1cccc(-c2nc3sc(N4CCCCC4)nn3c2NC(=O)C2CC2)c1` [SN00799546]: the “% Inhibition n=1 48h” value is 23.2%.

Turning to `CN(Cc1ccccc1)C(=O)c1cccc2c1CCN2C(=O)Nc1ccccc1` [SN00799558], the “% Inhibition n=1 48h” value is recorded as 0.0%.

Turning to `Cn1c(C(=O)N2CCN(c3ccccc3)CC2)cc2c1CCN(Cc1ccccc1)C2` [SN00799590], the “% Inhibition n=1 48h” value is 1.6%.

For `Cc1cccc(CN2CCc3c(cc(C(=O)NC(C)(C)C)n3C)C2)c1` [SN00799594], the “% Inhibition n=1 48h” value came to 0.0%.

With `Cc1csc(-c2ccc(CNC(=O)c3n[nH]c4ccccc34)cc2)n1` [SN00799624], the “% Inhibition n=1 48h” value is on record as 25.2%.

With `CSc1ccc(NC(=O)c2cn(C)c3ncccc23)cc1` [SN00799688], the “% Inhibition n=1 48h” value is listed as 9.5%.

As for `CCOCCn1c(N2CCCCC2)nc(C)cc1=O` [SN00799709], the “% Inhibition n=1 48h” value is on record as 33.8%.

For `O=C(Nc1cnc(-c2ccccc2)nc1)c1ccccc1C(F)(F)F` [SN00799772], the “% Inhibition n=1 48h” value came out at 0.0%.

As for `CN1CCCc2cc(C(=O)NCc3cccs3)sc21` [SN00799810], the “% Inhibition n=1 48h” value is recorded as 0.0%.

As to `CCOc1ccc2nc(C(=O)N3CCN(c4cccc(C)c4C)CC3)cn2n1` [SN00799885], the “% Inhibition n=1 48h” value is on record as 9.3%.

`O=C(c1cn2ccccc2n1)N1CCN(c2ccccc2F)CC1` [SN00799900]: the “% Inhibition n=1 48h” value is on record as 4.9%.

As to `CSc1ccc(CNC(=O)c2cn3cc(C)ccc3n2)cc1` [SN00799926], the “% Inhibition n=1 48h” value came to 26.2%.

For `CCCn1ccc2sc(C)c(C(=O)NC3CCCCC3)c2c1=O` [SN00799943], the “% Inhibition n=1 48h” value came out at 16.0%.

For the compound `Cc1sc2ccn(CC(C)C)c(=O)c2c1C(=O)NCCN1CCCCC1` [SN00799956], the “% Inhibition n=1 48h” value was 23.1%.

Consider `CNc1cccnc1OC1CCN(C(=O)CCc2nc3ccccc3[nH]2)C1` (centres unmarked) [SN00799967], for which the “% Inhibition n=1 48h” value came out at 11.3%.

As to `O=S(=O)(Nc1ccc(OC2CCNCC2)nc1)c1ccccc1` [SN00799991], the “% Inhibition n=1 48h” value was found to be 0.0%.

As to `COCC(=O)N1CCC(Oc2ncccc2C(=O)N(C)C)CC1` [SN00800001], the “% Inhibition n=1 48h” value was 4.8%.

As for `CN1CCC(Oc2ncccc2C(=O)N2CCOCC2)CC1` [SN00800013], the “% Inhibition n=1 48h” value amounted to 15.5%.

In the case of `Cc1ccc(C(=O)N2CCC(Oc3ncccc3C(=O)N3CCCCC3)C2)c(C)c1` (centres unmarked) [SN00800036], the “% Inhibition n=1 48h” value is 0.0%.

In the case of `CN(C)C(=O)c1ccc(OC2CCN(C(=O)c3ccco3)CC2)nc1` [SN00800077], the “% Inhibition n=1 48h” value was determined as 13.6%.

For `CN(C)C(=O)c1ccc(OC2CCN(Cc3ccccn3)C2)nc1` (centres unmarked) [SN00800120], the “% Inhibition n=1 48h” value is recorded as 6.6%.

Consider `O=C(c1ccoc1)N1CCC(Oc2nccnc2N2CCc3ccccc32)C1` (centres unmarked) [SN00800151], for which the “% Inhibition n=1 48h” value is on record as 22.8%.

Staying with this assay, now noted: 48 h, re-assessment.
With `CCOC(=O)c1cccc(Nc2ncccc2S(N)(=O)=O)c1` [SN00799296], the “% Inhibition n=2 48h” value was determined as 0.0%.

These data come from article PMC9775191, “A Subset Screen of the Compounds Australia Scaffold Library Identifies 7-Acylaminodibenzoxazepinones as Potent and Selective Hits for Anti-Giardia Drug Discovery” (Biomedicines, 2022).
